Source: US20100009917A1, “Modulating Enzymatic Processes by Addition of Diolcontaining Substances” (priority 2007, published 2010)
Where two headings read alike, the source gives them in different places.

Target: T1, TGase MTG P2 (Streptomyces mobaraensis, UniProt P81453)
T1 construct: made in house; host or cells: E. coli
Type: biochemical, Streptovercilium mobaraense
Protocol: TGase: • (a) TGase Activa WM from Ajinomoto, 60 mg/ml in 20 mM Phosphate buffer pH 8.5. The Activa WM enzyme from Streptoverticillium mobaraense is formulated under dry form in maltodextrins and contains 1% w/w of protein) (6.7 μl)); or • (b) TGase MTG P2 from Streptovercilium mobaraense expressed in soluble form using E. coli as expression system was formulated in 20 mM NaPhosphate buffer, pH 6.0, with 2 mM DTT and 5 w/v % maltodextrin. The concentration of the enzyme was between 0.7 and 4.5 mg/ml.
Capillary electrophoresis (CE) was carried out using an Agilent Technologies 3D-CE system (Agilent Technologies). Data acquisition and signal processing were performed using Agilent Technologies 3DCE ChemStation. The capillary was a 64.5 cm (56.0 cm efficient length) 50 μm i.d. “Extended Light Path Capillary” from Agilent. UV detection was performed at 200 nm (16 nm Bw, Reference 380 nm and 50 nm Bw). The running electrolyte was phosphate buffer 50 mM pH7.0. The capillary was conditioned with 0.1M NaOH for 3 min, then with Milli-Q water for 2 min and with the electrolyte for 3 min.
After each run, the capillary was flushed with milli-Q water for 2 min, then with phosphoric acid for 2 min, and with milli-Q water for 2 min. The hydrodynamic injection was done at 50 mbar for 4.0 s. The voltage was +25 kV. The capillary temperature was 30 C and the runtime was 10.5 min.
To a 1M solution of […] in triethanolamine 20 mM pH8.6 buffer (14 μl) was added triethanolamine 20 mM pH8.6 buffer (20.6 μl), ethylene glycol (53.6 μl) (40% w/v)), and a solution of human growth hormone (50 mg/ml) in triethanolamine 20 mM pH8.6 buffer (40 μl). The reaction was started by the addition of the TGase MTG P2 solution (0.35 mg/ml, 5.8 μl). The reaction mixture was incubated at ambient temperature and followed on CE.
(§1) The reaction was carried out in an analogous manner to the above method using the following concentrations: • [hGH]=0.67 mM (14.9 mg/ml final concentration) • [1,3-diamino 2-propanol]=300 mM • Buffer: 20 mM Triethanolamine pH 8.6 • +/−Ethylene glycol 40% (v/v) • [TGase MTG P2]=0.39 μM
The reaction was carried out in an analogous manner to the above method using the following concentrations: • [hGH]=0.67 mM (14.9 mg/ml final concentration) • [1,3-diamino 2-propanol]=300 mM • Buffer: 20 mM Triethanolamine pH 8.6 • +/−Ethylene glycol 10-40% (v/v) • [TGase MTG P2]=0.39 μM
The reaction was carried out in an analogous manner to the above method using the following concentrations: • [hGH]=0.67 mM (14.9 mg/ml final concentration) • [1,3-diamino 2-propanol]=300 mM • Buffer: 20 mM Triethanolamine pH 8.6 • +/−Ethylene glycol 40% (v/v) • [TGase MTG P2]=0.39 μM or 0.16 μM
as §1, with “out with ethylene glycol, glycerol, propylene glycol and 1,3 propanediol” for “out”, “+/−enhancing compound 7.18 M” for “+/−Ethylene glycol 40% (v/v)”
The reaction was carried out with glycerol in an analogous manner to the above method, except for the fact that more enzyme was added after five hours of reaction time. The reaction used the following concentrations: • [hGH]=0.67 mM (14.9 mg/ml final concentration) • [1,3-diamino 2-propanol]=300 mM • Buffer: 20 mM Triethanolamine pH 8.6 • Glycerol 7.18 M • [TGase MTG P2]=0.39 μM then 1.17 μM at 5 hours

[1] = enhancing compound 7.18 M, TGase MTG P2 0.39 μM, FIG. 7

T1 sequence (P81453 77-407): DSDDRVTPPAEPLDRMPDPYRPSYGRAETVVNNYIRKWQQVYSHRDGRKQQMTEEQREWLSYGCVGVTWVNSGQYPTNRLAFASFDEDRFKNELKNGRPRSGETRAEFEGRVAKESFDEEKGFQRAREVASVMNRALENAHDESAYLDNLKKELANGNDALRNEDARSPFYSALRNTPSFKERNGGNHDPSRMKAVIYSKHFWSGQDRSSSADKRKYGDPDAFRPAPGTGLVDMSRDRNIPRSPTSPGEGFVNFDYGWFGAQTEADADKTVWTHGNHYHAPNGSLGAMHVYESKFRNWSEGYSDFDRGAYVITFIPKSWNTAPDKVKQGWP

Structure (SMILES): OCC(O)CO [Glycerol, glycerol]
- selectivity of the reaction: improved the selectivity of the reaction
- side products (pos.40-TA-hGH and di-transaminated hGH) formed [1]: reduce the amount of side products
- yield when more enzyme is added (glycerol 7.18 M, TGase MTG P2 0.39 μM then 1.17 μM at 5 hours, FIG. 8): can be increased

Structure (SMILES): CC(O)CO (stereo not drawn) [Propylene glycol, propylene glycol]
- yield, comparison of compounds of related structures [1]: next highest yield

Structure (SMILES): OCCO [ethylene glycol]
- product yield, varying enzyme concentration: highest product yield
- yield of pos.141 TA-hGH with rising ethylene glycol concentration: increased yield
- yield, comparison of compounds of related structures: highest yield
- maximum yield of the desired pos.141-hGH (pH 8.6): 75%

Structure (SMILES): OCCCO [1,3 propanediol, reference compound]
- effect on the enzyme reaction (1,3 propanediol 7.18 M, TGase MTG P2 0.39 μM, FIG. 7): completely inhibited the reaction
